The record followed here is patent US20180344725A1, “QUINOLONE CHALCONE COMPOUNDS AND USES THEREOF” (priority 2015, published 2018).

Holding throughout (format): cell-based
One series concerns RPMI-8226-BR. In words: Antiproliferation, bortezomib-resistant cells. The settings on record: RPMI-8226-BR (bortezomib-resistant). The protocol:
For (anti)proliferation assays, 4,000-5,000 cells/well of the 96-well clustered dish were incubated for 16 hours, as described previously (Hu et al., 2008; Skehan et al., 1990). After 16 hours, culture medium was replaced with fresh medium containing different dilutions of test compounds dissolved in DMSO. Some wells were treated with 100 μl of 10% trichloroacetic acid (TCA) as a negative control and sham (medium with dimethyl sulfoxide; DMSO) treated cells were used as a positive control. After 72 hours post-incubation, medium was removed and cells were fixed with 10% TCA at 4° C. for 1 hour. […] SRB stained macromolecules were determined at a 540 nm wavelength using an automated plate reader (Synergy H4 Hybrid Multi-Mode Microplate Reader, BioTek, Winooski, Vt.). Cell growth (inhibition) was calculated by the following formula: […]
wherein AT=absorbance of treated cells, CT=absorbance of negative control cells, and ST=absorbance of sham treated cells. IC50 values were calculated from sigmoidal dose-response curves generated by two independent biological replicates, with quadruplicate in each set by using Graph Pad Prism v.5.04 software. […] The combinational index (CI) was calculated as described previously (Chou 2006). […] CI values were determined from four independent experiments.

The subject of series [1] is HeLa cells. Description: EdU incorporation (DNA replication). The following applies: 3.0 μM for 24 hours; sham control 25.4%. Here is the method:
(§1) CTR-17 caused neither impediment of DNA replication nor DNA damage. […] The detection of EdU incorporated into DNA was carried out by fluorescence microscopy. […] Etoposide (50.0 μM) was used as a positive control.

The test system of series [2] is HeLa cells. Description: γ-H2AX immunostaining (DNA damage). The following applies: 3.0 μM. The protocol: as §1

With `COc1ccc2[nH]c(=O)c(/C=C/C(=O)c3ccccc3OC)cc2c1` [CTR-20, (E)-6-Methoxy-3-(3-(2-methoxyphenyl)-3-oxoprop-1-enyl) quinolin-2(1H)-one], in the series on RPMI-8226-BR, the IC50 stood at 0.28 ± 0.03 µM. `COc1ccccc1C(=O)/C=C/c1cc2ccccc2[nH]c1=O` [CTR-17, (E)-3-(3-(2-Methoxyphenyl)-3-oxoprop-1-enyl)quinolin-2(1H)-one] returned an EdU positive cells with HeLa cells [1] of 22.0%. The “DNA damage (γ-H2AX)” value with HeLa cells [2] was “does not cause any notable DNA damage”.
